Reference: patent publication US11173156B2, “Solid forms of a kynurenine-3-monooxygenase inhibitor” (CHDI Foundation, Inc., priority 2019, dated 2021)
Where two headings read alike, the source gives them in different places.

How the values were obtained:
Assay type in all cases: physicochemical
[1] = Approximate aqueous solubility of salts/co-crystals (visual, solvent addition method); details: water; for solubility: estimated visually, solvent addition method
Description: A weighed sample was treated with aliquots of the test solvent at room temperature. The mixture was sonicated between additions to facilitate dissolution. Complete dissolution of the test material was determined by visual inspection. Solubility was estimated based on the total solvent used to provide complete dissolution. Some samples were then heated and observed visually for complete dissolution. The actual solubility may be greater than the value calculated because of the use of solvent aliquots that were too large or due to a slow rate of dissolution. […] If complete dissolution was achieved as a result of only one aliquot addition, the solubility is expressed as “greater than.”

[2] = Deliquescence of salts/co-crystals during exposure to 75% RH; details: ambient temperature, 3 day exposure, visual
Description: The salts identified from the salt/co-crystal screen of Compound I (see section 4 above) were assessed visually for deliquescence during exposure to 75% RH at ambient temperature (Table 5). […] The materials from these experiments were recovered and re-analyzed by XRPD to determine if changes in solid form occurred.

[3] = Dynamic vapor sorption/desorption (DVS); details: for material recovered from the DVS analysis compared with starting material by XRPD: after DVS; for DVS weight gain: from about 5 to about 95% RH; for DVS weight loss: from about 95% to about 5% RH
Description: Moisture sorption/desorption data were collected on a VTI SGA-100 Vapor Sorption Analyzer. NaCl and PVP were used as calibration standards. Samples were not dried prior to analysis. Sorption and desorption data were collected over a range from 5% to 95% RH at 10% RH increments under a nitrogen purge. The equilibrium criterion used for analysis was less than 0.0100% weight change in 5 minutes with a maximum equilibration time of 3 hours. Data were not corrected for the initial moisture content of the samples.

Row | SMILES | aqueous solubility (in words) [1] | solubility [1] | Observation (deliquescence) [2] | hygroscopicity by DVS analysis (in words) [3] | DVS weight loss upon equilibration at about 5% RH [3] | material recovered from the DVS analysis compared with starting material by XRPD [3] | DVS weight gain [3] | DVS weight loss [3] | also measured
1 | O=C(O)c1cc(-c2ccc(OC3CC3)c(Cl)c2)ncn1 [Compound I tromethamine Form A, 6-(3-chloro-4-cyclopropoxyphenyl)pyrimidine-4-carboxylic acid] | desirable aqueous solubility | ~134 mg/mL | no deliquescence | not hygroscopic | about 0.01% | substantially the same as the starting material | ~0.25% | ~0.26% | solubility ([1]; listed as Tromethamine A): >134 mg/mL
2 | O=C(O)c1cc(-c2ccc(OC3CC3)c(Cl)c2)ncn1 [Compound I diethanolamine Form A, 6-(3-chloro-4-cyclopropoxyphenyl)pyrimidine-4-carboxylic acid] | desirable aqueous solubility | above 260 mg/mL | no deliquescence | not hygroscopic | about 0.2% | substantially the same as the starting material | ~0.48% | ~0.47% | 
3 | O=C(O)c1cc(-c2ccc(OC3CC3)c(Cl)c2)ncn1 [Compound I diethylamine Material A, 6-(3-chloro-4-cyclopropoxyphenyl)pyrimidine-4-carboxylic acid] | desirable aqueous solubility | ~30 mg/mL | no deliquescence | hygroscopic | about 0.08% | substantially the same as the starting material | ~2.12% | ~1.92% | solubility ([1]; listed as Diethylamine A): >30 mg/mL; gain observed by DVS analysis ([3]; sorption cycle): ~2 wt %
4 | O=C(O)c1cc(-c2ccc(OC3CC3)c(Cl)c2)ncn1 [Compound I meglumine Material A, 6-(3-chloro-4-cyclopropoxyphenyl)pyrimidine-4-carboxylic acid] | suitable aqueous solubility |  |  |  |  |  |  |  | 
5 | O=C(O)c1cc(-c2ccc(OC3CC3)c(Cl)c2)ncn1 (racemic) [Compound I lysine Material A, 6-(3-chloro-4-cyclopropoxyphenyl)pyrimidine-4-carboxylic acid] |  |  | no deliquescence |  |  |  |  |  | solubility ([1]; thermodynamic from solid, read-out: Solubility): < 4 mg/mL; aqueous solubility (in words) ([1]; listed as Compound I lysine material A): poor low aqueous solubility
6 | O=C(O)c1cc(-c2ccc(OC3CC3)c(Cl)c2)ncn1 (racemic) [Compound I arginine Material A, 6-(3-chloro-4-cyclopropoxyphenyl)pyrimidine-4-carboxylic acid] |  |  |  |  |  |  |  |  | aqueous solubility (in words) ([1]; listed as Compound I Arginine Material A): suitable aqueous solubility
7 | O=C(O)c1cc(-c2ccc(OC3CC3)c(Cl)c2)ncn1 [Compound I ethanolamine Material A, 6-(3-chloro-4-cyclopropoxyphenyl)pyrimidine-4-carboxylic acid] | poor low aqueous solubility |  | no deliquescence |  |  |  |  |  | solubility ([1]; listed as Ethanolamine A): <4 mg/mL
